# Data from article PMC11239005, “Preclinical studies of RA475, a guanidine-substituted spirocyclic candidate RPN13/ADRM1 inhibitor for treatment of ovarian cancer” (PLOS ONE, 2024).
# Like-named read-outs stand apart in the source and are kept apart here.
# Assays:
# PEA1 cells = test: MTT cytotoxicity assay, PEA1; format: cell-based, human; details: for IC50: Homo sapiens, PEA1, 72 h
# Description: (§1) All cell lines were obtained from the American Type Culture Collection (ATCC) and cultured in the specified medium supplemented with 10% fetal bovine serum, 100 IU/mL penicillin, and 100 μg/mL streptomycin at 37°C in a humidified 5% CO2/95% air incubator. Synthesis of new compounds is described in S1 File, and >95% purity of RA475, Up284 and its analogs were confirmed by NMR and MS. To assess drug cytotoxicity, cells were seeded at 2,500 cells/well (10,000 cells/well for MM lines) in 100 μL medium in 96-well plate as triplicates and after 24 h treated with compounds for a further 72 h. To assess cytotoxicity, the cells were incubated for 2 h at 37°C according to the manufacturer’s protocol with the Thiazolyl Blue Tetrazolium Bromide (20 μL/well of 5 mg/mL stock solution in water) (Sigma, M5655) and A570 measured using a Benchmark Plus microplate spectrophotometer (BIO-RAD). IC50 was estimated using Graphpad Prism 7 software.
# Modifications of Up284 were sought to improve its drug-like properties without significant compromise of its activity in vivo, and several new compounds were synthesized (S1 File). Based on our prior studies of its pharmacophore, the central ring nitrogen was the most logical for addition of charged moieties, including RA475 and RA484. We also examined a change to either 3,4 spiro rings (RA477, RA479), or addition of 3-Fluoro substitutions (RA482) (S1 File). Our focus is developing iRPN13 to treat ovarian cancer resistant to standard of care drug regimens.
# A wash-out experiment was performed to assess reversibility of the toxicity. PEA1 cells were treated with RA475 for 1 h before the medium was replaced with fresh culture medium, and the cells were then allowed to grow for another 71 hours (PEA1-WO). In parallel, PEA1 cells were incubated with RA475 continuously for 72 h. […] Possible reasons include slow uptake of RA475, reversible binding and neutralization by antioxidants in the medium.
# To study the effect of RA475 in combination with approved therapeutics (DNA damaging agents or radiation) an MTT assay was performed using various concentrations of both drugs. Briefly PEA1 and OVCAR3 cells were each treated with drug combination (RA475 plus cisplatin) for 72 h in a checker board analysis and cell viability was measured using MTT assay. The data were analyzed and plotted using the Synergy Finder web application.
# LaPC4 = test: MTT cytotoxicity assay, LaPC4; format: cell-based; details: Homo sapiens, LaPC4, 72 h
# Description: as §1
# PEO23 = test: MTT cytotoxicity assay, PEO23; format: cell-based; details: PEO23, 72 h
# Description: as §1
# TC1-Ova = test: MTT cytotoxicity assay, TC1-Ova; format: cell-based; details: 72 h
# Description: as §1
# B6-Ova = test: MTT cytotoxicity assay, B6-Ova; format: cell-based; details: 72 h
# Description: as §1
# CT26 = test: MTT cytotoxicity assay, CT26; format: cell-based; details: Mus musculus, CT26, 72 h
# Description: as §1
# SKMEL2 = test: MTT cytotoxicity assay, SKMEL2; format: cell-based; details: Homo sapiens
# Description: as §1
# PEO4 = test: MTT cytotoxicity assay, PEO4; format: cell-based; details: Homo sapiens, PEO4, 72 h
# Description: as §1
# We elected to focus on RA475 and expanded the analysis in a larger panel of cell lines including those from common cancer types and normal tissues. […] This panel included another pair of cell lines isolated from another ovarian cancer patient with drug-resistant disease (PEO4) and pre-treatment (PEO1), and both were similarly sensitive to RA475.
# Calu-1 = test: MTT cytotoxicity assay, Calu-1; format: cell-based; details: Homo sapiens, Calu-1, 72 h
# Description: as §1
# 4UbFL in ES2 cells = test: 4UbFL reporter assay, ES2; format: cell-based, human; details: 4 h; for 4UbFL stabilization, fold over DMSO: ES2, 1.25 μM; for 4UbFL bioluminescence, luminometer: ES2 stably expressing 4UbFL
# Description: Sub-confluent cultures of cells were transfected with 4UbFL plasmid using TransIT 2020 reagent (Mirus Bio). Cells were seeded at 10,000 cells/well in 96-well plates 48 h post transfection, and incubated with compounds or vehicle (DMSO) at the doses and for the times indicated. Luciferase activity in cell lysate was determined with a luciferase assay kit (Promega) according to the manufacturer’s instructions. Bioluminescence was measured using a Glomax Multidetection system (Promega).
# Fig 3 Impact of RA475 on proteasome function. […] Actin was used as loading control. […] C) 4T1 and HCC1806 cells stably expressing 4UbFL were treated with compounds at indicated doses for 4 h and imaged by IVIS200 after the addition of luciferin substrate (50 μL, 7mg/mL in PBS). D) Sub-confluent cultures of ES2 cells stably expressing 4UbFL were seeded at 10,000 cells/well in 96-well microtiter plates. At 18 h post transfection, cells were treated with compounds or vehicle (DMSO) at the doses indicated. After a 4 h incubation, the cells were lysed and the luciferase activity in each cell lysate was determined with a luciferase assay kit (Promega) according to the manufacturer’s instructions. Bioluminescence was measured by using a luminometer (Glomax Multidetection system, Promega) E) A patch was shaved of hair on one leg of CD-1 mice, and 10 μg 4UbFL plasmid in 20 μL of PBS was injected into the quadriceps femoralis muscle followed immediately by injection of the 2 Needle Array to 5 mm depth encompassing the injection site and square wave electroporation (ElectroSquarePorator 833, BTX-2 Needle array 5mm gap, Harvard apparatus) delivered as eight pulses at 106V for 20 ms with 200 ms intervals. One day post electroporation, mice were anesthetized with isoflurane, injected IP with luciferin (0.3 mg in 100 μL water) and optical imaging was performed to determine basal level luciferase expression. Images were acquired for 10 min with a Xenogen IVIS 200 (Caliper, Hopkinton, MA). Equally sized areas were analyzed using Living Image 2.20 software. Mice were imaged weekly during treatment. Mice were randomized into three groups (n = 5) and treated IP once with Vehicle (25% (w/v) β-Hydroxypropylcyclodextrin in water, Sigma Aldrich) alone, RA475 (40 mg/Kg) or Up284 (40 mg/Kg) and mice were imaged again at 4 h, 24 h, 48 h, 72 h and 96 h later. F) Same as in E but RA475 (40mg/Kg) and ixazomib (10mg/Kg, recommended dose) were delivered orally. Thick line indicates median measurements. P-values are results based on Wilcoxon rank sum test for pairwise comparisons to vehicle cohort at each time point with multiplicity adjustment.
# Firefly Luciferase (FL) is a stable protein in cells, but when fused with four molecules of ubiquitin (4Ub) it is targeted for rapid degradation by proteasomes. […]
SMILES,IC50 (PEA1 cells) [nM],IC50 (LaPC4) [nM],IC50 (PEO23) [nM],IC50 (TC1-Ova) [nM],IC50 (B6-Ova) [nM],IC50 (CT26) [nM],"IC50 (SKMEL2; SK-MEL-2, SKMEL2, 72 h, MTT, read-out: IC50) [nM]",IC50 (PEO4) [nM],IC50 (Calu-1) [nM],"4UbFL stabilization, fold over DMSO (4UbFL in ES2 cells) [fold]","4UbFL bioluminescence, luminometer (4UbFL in ES2 cells)","cytotoxic effect after wash-out (PEA1 cells; PEA1, RA475 1 h then fresh medium 71 h vs continuous 72 h)","synergy with cisplatin for cytotoxicity (PEA1 cells; PEA1, checker board, 72 h, Synergy Finder)","IC50 (SKMEL2; SK-MEL-2, 72 h) [nM]"
"N#Cc1ccc(/C=C2/C(=O)/C(=C/c3ccc(C#N)cc3)C23CCNCC3)cc1 [Up284, reference compound]",219,510,112,90,50,50,70,61,65,> 20,dose-dependent increase in bioluminescence,–,–,–
"Cl.Cl.N#Cc1ccc(/C=C2/C(=O)/C(=C/c3ccc(C#N)cc3)C23CCN(C(=N)N)CC3)cc1 [RA475, 1,3-bis((E)-4-cyanobenzylidene)-2-oxo-7-azaspiro[3.5]nonane-7-carboximidamide dihydrochloride]",406,2030,297,150,70,630,–,260,241,> 20,dose-dependent increase in bioluminescence,reduced its cytotoxic effect,mild synergy,156
